# Data as given in US20250186627A1, “RADIOLABELED COMPOUNDS TARGETING THE PROSTATE-SPECIFIC MEMBRANE ANTIGEN” (PROVINCIAL HEALTH SERVICES AUTHORITY, priority 2022, published 2025).
# *1 amine or outer side, *2 acyl side, *3 side chain or, on linkers, in order; H or OH if unused. Where a SMILES comes first, the peptide text is derived from it. [ ]: non-standard residue; d: D form. The star is where a group is joined. ξ: configuration not given here. ξLys(Nα-CO-ξAad) = O=C(O)CCCC(NC(=O)NC(CCCCN*)C(=O)O)C(=O)O; DOTA = O=C(O)CN1CCN(CC(=O)O)CCN(CC(=O)*)CCN(CC(=O)O)CC1; Butanoyl(4-(4-MeO-phenyl)) = COc1ccc(CCCC(=O)*)cc1; ξAla(9-anthryl) = NC(Cc1c2ccccc2cc2ccccc12)C(=O)O; X2 = O=C(NC(CCCCN*)C(=O)O)NC(CC(F)C(=O)O)C(=O)O; X1 = O=C(C1CCC(CN[*:1])CC1)[*:2]; ξK = NCCCCC(N)C(=O)O
# Test system: NRG-mice bearing LNCaP tumors
# Test: Biodistribution (and PET/SPECT imaging) in NRG-mice bearing LNCaP tumors
# Type: in vivo
# Conditions: for Biodistribution: Adrenal gland / Biodistribution: Blood / Biodistribution: Bone / Biodistribution: Brain / Biodistribution: Fat / Biodistribution: Heart / Biodistribution: Intestine / Biodistribution: LNCaP tumor / Biodistribution: Lacrimal gland / Biodistribution: Liver / Biodistribution: Lungs / Biodistribution: Muscle / Biodistribution: Pancreas / Biodistribution: Salivary gland / Biodistribution: Seminal gland / Biodistribution: Spleen / Biodistribution: Stomach / Biodistribution: Testes / Biodistribution: Thyroid / Biodistribution: Urine / Biodistribution: kidney: Avg
# Procedure: LNCaP cell line was obtained from ATCC (LNCaP clone FGC, CRL-1740). It was established from a metastatic site of left supraclavicular lymph node of human prostatic adenocarcinoma. Cells were cultured in PRMI 1640 medium supplemented with 10% FBS, penicillin (100 U/mL) and streptomycin (100 μg/mL) at 37° C. in a humidified incubator containing 5% CO2. Cells grown to 80-90% confluence were then washed with sterile phosphate-buffered saline (1×PBS pH 7.4) and trypsinization. The collected cells number was counted with a Hausser Scientific (Horsham, PA) Hemacytometer. Approximately 10 million LNCaP cells were inoculated into the left dorsal flank of immunocomprised NRG mice. The tumours were allowed to grow for 4-6 weeks and used for imaging and biodistribution studies when a volume of 200-600 mm^3 was reached.
# PET imaging experiments were conducted using Siemens Inveon micro PET/CT scanner. SPECT imaging experiments were conducted using an MILabs micro SPECT/CT scanner. Each tumor bearing mouse was injected 4-6 MBq of ^68Ga or 18.5 MBq of ^177Lu labeled tracer through the tail vein under anesthesia (2% isoflurane in oxygen). The mice were allowed to recover and roam freely in their cage. At pre-defined time point, the mice were sedated again with 2% isoflurane in oxygen inhalation and positioned in the scanner. A 10-min CT scan was conducted first for localization and attenuation correction after segmentation for reconstructing the PET or SPECT images. Then, a 10-min static PET imaging or a one hour (30 min×2 frames) of static SPECT scan was performed to determined uptake in tumor and other organs. The mice were kept warm by a heating pad during acquisition.
# For biodistribution studies, the mice were injected with the radiotracer as described above. The mice were anesthetized with 2% isoflurane inhalation, and euthanized by CO2 inhalation. Blood was withdrawn immediately from the heart, and the organs/tissues of interest were collected. The collected organs/tissues were weighed and counted using a Perkin Elmer (Waltham, MA) Wizard2 2480 gamma counter. The uptake in each organ/tissue was normalized to the injected dose (radioactivity) using a standard curve, and expressed as the percentage of the injected dose per gram of tissue (% ID/g).
smiles,measurement,setting,value
COc1ccc(CCCC(=O)NCC(=O)NC(CCCCNC(=O)CN2CCN(CC(=O)[O-])CCN(CC(=O)[O-])CCN(CC(=O)[O-])CC2)C(=O)NCC(=O)NCC2CCC(C(=O)NC(Cc3c4ccccc4cc4ccccc34)C(=O)NCCCCC(NC(=O)NC(CC(F)C(=O)O)C(=O)O)C(=O)O)CC2)cc1.[177Lu+3] (centres unmarked) [^177Lu-CCZ02008] ({Butanoyl(4-(4-MeO-phenyl))}-G[ξK](DOTA)G[X1][ξAla(9-anthryl)]-X2),Biodistribution: Adrenal gland,4 h p.i.,5.91 % ID/g
same,Biodistribution: Blood,4 h p.i.,24.97 % ID/g
same,Biodistribution: Bone,4 h p.i.,1.49 % ID/g
same,Biodistribution: Brain,4 h p.i.,0.47 % ID/g
same,Biodistribution: Fat,4 h p.i.,2.63 % ID/g
same,Biodistribution: Heart,4 h p.i.,5.42 % ID/g
same,Biodistribution: Intestine,4 h p.i.,1.87 % ID/g
same,Biodistribution: LNCaP tumor,4 h p.i.,21.30 % ID/g
same,Biodistribution: Lacrimal gland,4 h p.i.,1.44 % ID/g
same,Biodistribution: Liver,4 h p.i.,4.26 % ID/g
same,Biodistribution: Lungs,4 h p.i.,10.19 % ID/g
same,Biodistribution: Muscle,4 h p.i.,1.75 % ID/g
same,Biodistribution: Pancreas,4 h p.i.,2.20 % ID/g
same,Biodistribution: Salivary gland,4 h p.i.,4.23 % ID/g
same,Biodistribution: Seminal gland,4 h p.i.,1.53 % ID/g
same,Biodistribution: Spleen,4 h p.i.,2.15 % ID/g
same,Biodistribution: Stomach,4 h p.i.,1.11 % ID/g
same,Biodistribution: Testes,4 h p.i.,3.83 % ID/g
same,Biodistribution: Thyroid,4 h p.i.,4.29 % ID/g
same,Biodistribution: Urine,4 h p.i.,76.61 % ID/g
same,Biodistribution: kidney,4 h p.i.,10.56 % ID/g
same,Biodistribution: Adrenal gland,24 h p.i.,2.39 % ID/g
same,Biodistribution: Blood,24 h p.i.,4.37 % ID/g
same,Biodistribution: Bone,24 h p.i.,0.36 % ID/g
same,Biodistribution: Brain,24 h p.i.,0.09 % ID/g
same,Biodistribution: Fat,24 h p.i.,0.71 % ID/g
same,Biodistribution: Heart,24 h p.i.,1.27 % ID/g
same,Biodistribution: Intestine,24 h p.i.,0.59 % ID/g
same,Biodistribution: LNCaP tumor,24 h p.i.,38.57 % ID/g
same,Biodistribution: Lacrimal gland,24 h p.i.,0.12 % ID/g
same,Biodistribution: Liver,24 h p.i.,1.16 % ID/g
same,Biodistribution: Lungs,24 h p.i.,2.49 % ID/g
same,Biodistribution: Muscle,24 h p.i.,0.40 % ID/g
same,Biodistribution: Pancreas,24 h p.i.,0.62 % ID/g
same,Biodistribution: Salivary gland,24 h p.i.,1.38 % ID/g
same,Biodistribution: Seminal gland,24 h p.i.,0.38 % ID/g
same,Biodistribution: Spleen,24 h p.i.,0.86 % ID/g
same,Biodistribution: Stomach,24 h p.i.,0.48 % ID/g
same,Biodistribution: Testes,24 h p.i.,1.86 % ID/g
same,Biodistribution: Thyroid,24 h p.i.,1.54 % ID/g
same,Biodistribution: Urine,24 h p.i.,28.57 % ID/g
same,Biodistribution: kidney,24 h p.i.,7.55 % ID/g
same,Biodistribution: Adrenal gland,72 h p.i.,2.59 % ID/g
same,Biodistribution: Blood,72 h p.i.,0.42 % ID/g
same,Biodistribution: Bone,72 h p.i.,0.26 % ID/g
same,Biodistribution: Brain,72 h p.i.,0.03 % ID/g
same,Biodistribution: Fat,72 h p.i.,0.39 % ID/g
same,Biodistribution: Heart,72 h p.i.,0.37 % ID/g
same,Biodistribution: Intestine,72 h p.i.,0.15 % ID/g
same,Biodistribution: LNCaP tumor,72 h p.i.,38.46 % ID/g
same,Biodistribution: Lacrimal gland,72 h p.i.,0.07 % ID/g
same,Biodistribution: Liver,72 h p.i.,0.47 % ID/g
same,Biodistribution: Lungs,72 h p.i.,0.69 % ID/g
same,Biodistribution: Muscle,72 h p.i.,0.11 % ID/g
same,Biodistribution: Pancreas,72 h p.i.,0.17 % ID/g
same,Biodistribution: Salivary gland,72 h p.i.,0.55 % ID/g
same,Biodistribution: Seminal gland,72 h p.i.,0.15 % ID/g
same,Biodistribution: Spleen,72 h p.i.,0.83 % ID/g
same,Biodistribution: Stomach,72 h p.i.,0.18 % ID/g
same,Biodistribution: Testes,72 h p.i.,0.92 % ID/g
same,Biodistribution: Thyroid,72 h p.i.,0.65 % ID/g
same,Biodistribution: Urine,72 h p.i.,4.51 % ID/g
same,Biodistribution: kidney,72 h p.i.,3.53 % ID/g
same,Biodistribution: Adrenal gland,120 h p.i.,1.39 % ID/g
same,Biodistribution: Blood,120 h p.i.,0.14 % ID/g
same,Biodistribution: Bone,120 h p.i.,0.14 % ID/g
same,Biodistribution: Brain,120 h p.i.,0.02 % ID/g
same,Biodistribution: Fat,120 h p.i.,0.22 % ID/g
same,Biodistribution: Heart,120 h p.i.,0.22 % ID/g
same,Biodistribution: Intestine,120 h p.i.,0.14 % ID/g
same,Biodistribution: LNCaP tumor,120 h p.i.,45.01 % ID/g
same,Biodistribution: Lacrimal gland,120 h p.i.,0.12 % ID/g
same,Biodistribution: Liver,120 h p.i.,0.30 % ID/g
same,Biodistribution: Lungs,120 h p.i.,0.30 % ID/g
same,Biodistribution: Muscle,120 h p.i.,0.09 % ID/g
same,Biodistribution: Pancreas,120 h p.i.,0.11 % ID/g
same,Biodistribution: Salivary gland,120 h p.i.,0.34 % ID/g
same,Biodistribution: Seminal gland,120 h p.i.,0.27 % ID/g
same,Biodistribution: Spleen,120 h p.i.,1.45 % ID/g
same,Biodistribution: Stomach,120 h p.i.,0.37 % ID/g
same,Biodistribution: Testes,120 h p.i.,0.67 % ID/g
same,Biodistribution: Thyroid,120 h p.i.,0.39 % ID/g
same,Biodistribution: Urine,120 h p.i.,3.80 % ID/g
same,Biodistribution: kidney,120 h p.i.,2.04 % ID/g
COc1ccc(CCCC(=O)NCC(=O)NC(CCCCNC(=O)CN2CCN(CC(=O)[O-])CCN(CC(=O)[O-])CCN(CC(=O)[O-])CC2)C(=O)NCC(=O)NCC2CCC(C(=O)NC(Cc3c4ccccc4cc4ccccc34)C(=O)NCCCCC(NC(=O)NC(CCCC(=O)O)C(=O)O)C(=O)O)CC2)cc1.[68Ga+3] (centres unmarked) [^68Ga-CCZ02009] ({Butanoyl(4-(4-MeO-phenyl))}-G[ξK](DOTA)G[X1][ξAla(9-anthryl)]-{ξLys(Nα-CO-ξAad)}),Blood radioactivity,1 and 3 h p.i.,high and sustained blood radioactivity
same,Biodistribution: Adrenal gland,1 h p.i.,3.82 % ID/g
same,Biodistribution: Blood,1 h p.i.,19.52 % ID/g
same,Biodistribution: Bone,1 h p.i.,0.77 % ID/g
same,Biodistribution: Brain,1 h p.i.,0.30 % ID/g
same,Biodistribution: Fat,1 h p.i.,1.35 % ID/g
same,Biodistribution: Heart,1 h p.i.,4.02 % ID/g
same,Biodistribution: Intestine,1 h p.i.,1.72 % ID/g
same,Biodistribution: LNCaP tumor,1 h p.i.,7.11 % ID/g
same,Biodistribution: Liver,1 h p.i.,3.04 % ID/g
same,Biodistribution: Lungs,1 h p.i.,6.51 % ID/g
same,Biodistribution: Muscle,1 h p.i.,1.15 % ID/g
same,Biodistribution: Pancreas,1 h p.i.,1.56 % ID/g
same,Biodistribution: Salivary gland,1 h p.i.,2.74 % ID/g
same,Biodistribution: Seminal gland,1 h p.i.,0.88 % ID/g
same,Biodistribution: Spleen,1 h p.i.,1.56 % ID/g
same,Biodistribution: Stomach,1 h p.i.,0.71 % ID/g
same,Biodistribution: Testes,1 h p.i.,2.33 % ID/g
same,Biodistribution: Thyroid,1 h p.i.,2.92 % ID/g
same,Biodistribution: Urine,1 h p.i.,63.67 % ID/g
same,Biodistribution: kidney,1 h p.i.,7.57 % ID/g
same,Biodistribution: Adrenal gland,3 h p.i.,4.34 % ID/g
same,Biodistribution: Blood,3 h p.i.,19.18 % ID/g
same,Biodistribution: Bone,3 h p.i.,1.62 % ID/g
same,Biodistribution: Brain,3 h p.i.,0.32 % ID/g
same,Biodistribution: Fat,3 h p.i.,1.52 % ID/g
same,Biodistribution: Heart,3 h p.i.,3.76 % ID/g
same,Biodistribution: Intestine,3 h p.i.,1.53 % ID/g
same,Biodistribution: LNCaP tumor,3 h p.i.,17.69 % ID/g
same,Biodistribution: Liver,3 h p.i.,3.35 % ID/g
same,Biodistribution: Lungs,3 h p.i.,7.15 % ID/g
same,Biodistribution: Muscle,3 h p.i.,1.34 % ID/g
same,Biodistribution: Pancreas,3 h p.i.,1.41 % ID/g
same,Biodistribution: Salivary gland,3 h p.i.,3.82 % ID/g
same,Biodistribution: Seminal gland,3 h p.i.,1.73 % ID/g
same,Biodistribution: Spleen,3 h p.i.,2.17 % ID/g
same,Biodistribution: Stomach,3 h p.i.,0.73 % ID/g
same,Biodistribution: Testes,3 h p.i.,2.28 % ID/g
same,Biodistribution: Thyroid,3 h p.i.,3.59 % ID/g
same,Biodistribution: Urine,3 h p.i.,56.09 % ID/g
same,Biodistribution: kidney,3 h p.i.,9.28 % ID/g
